Measured values as given in patent US11414454B2, “Compositions, methods, and systems for affinity-based protein identification and purification” (Auctus Biologies, Inc., priority 2017, dated 2022).

Assays:
RPtag (large) [1] = assay: Fluorescence anisotropy Kd of rhodamine labeled RPtag (small) peptides for RPtag (large); assay type: binding, Thermoanaerobacter tengcongensis; details: for Kd: N-terminal rhodamine tagged peptide, unlabeled RPtag (large), 50 mM Tris pH 8.0, 0.005% Tween 20, mean ± SE
RPtag (large), sequence (as listed by the source): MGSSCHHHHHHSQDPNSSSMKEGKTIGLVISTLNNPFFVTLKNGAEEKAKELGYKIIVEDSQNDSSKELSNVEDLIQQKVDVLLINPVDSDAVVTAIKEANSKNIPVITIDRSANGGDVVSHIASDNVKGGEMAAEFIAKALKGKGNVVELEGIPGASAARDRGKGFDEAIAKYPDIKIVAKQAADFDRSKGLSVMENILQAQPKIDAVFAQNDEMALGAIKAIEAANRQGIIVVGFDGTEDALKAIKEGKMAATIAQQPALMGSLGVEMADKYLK
Description: 50 nM of RP-Tag Small (see Sequence 3, below) with an N-terminal Rhodamine B label was incubated with increasing concentrations of either RP-Tag Large (see Sequence 2) or Bovine Serum Albumin (BSA) in 50 mM Tris pH 8.0, 150 mM NaCl, 10 mM 2-mercaptoethanol, and 0.005% Tween 20 for 5 min in black 96-well plates at room temperature.
Anisotropy was then measured, and a Kd calculated by fitting the data to the equation f=y0+(ymax−y0)*(Ptot+x+Kd−sqrt((Ptot+x+Kd)^2−4*Ptot*x))/(2*Ptot), where y0 is the baseline anisotropy, ymax is the maximum anisotropy, Ptot is the fixed concentration of labeled peptide used, x is the variable concentration of protein used, and Kd is the measured Kd.
The indicated concentrations of RPtag (large) and an anti-His tag antibody (4E3D10H2/E3 purchased from ThermoFisher Scientific) were incubated with 1 nM rhodamine labeled native RPtag (small) peptide and 6×His peptide (Rhodamine-GHHHHHH), respectively, and fluorescence anisotropy measured. BSA incubated with native rhodamine labeled RPtag(small) is included as a control for non-specific binding. Kd's were calculated according to the equation f=y0+(ymax−y0)*(Ptot+x+Kd−sqrt((Ptot+x+Kd)^2−4*Ptot*x))/(2*Ptot), where y0 is the baseline anisotropy, ymax is the maximum anisotropy, Ptot is the fixed concentration of labeled peptide used, x is the variable concentration of protein used, and Kd is the measured Kd. We measured a Kd of 0.2±0.1 nM for RPtag(large) binding RPtag(small), and a Kd of 6±1 nM for the antibody/6×His tag pair.
Regarding the studies shown in FIG. 14, increasing concentrations of unlabeled RPtag large with the indicated mutations (native, f137d, and f137e) were incubated for 1 h with 1 nM rhodamine labeled RPtag small peptide and the fluorescence anisotropy was measured. Resultant curves were fit with the equation f=y0+(ymax−y0)*(Ptot+x+Kd−sqrt((Ptot+x+Kd)^2−4*Ptot*x))/(2*Ptot), where y0 is the baseline anisotropy, ymax is the maximum anisotropy, Ptot is the fixed concentration of labeled peptide used, x is the variable concentration of protein used, and Kd is the measured Kd. Data are presented here as Ka=1/Kd. Log transformed Ka's were then compared by one-way ANOVA with Holm-Sidak post hoc correction. ***p<0.001, **p<0.01, *p<0.05. data are mean±SEM (n=3-4). Buffer was 50 mM Tris pH 8.0, 0.005% tween20. Proteins were expressed and purified by single step NiNTA chromatography as before. Peptides were synthesized solid-state and handled as previous.

RPtag (large) [2] = assay: Association/dissociation kinetics of RPtag (small) peptides with RPtag (large) by fluorescence anisotropy; assay type: binding, Thermoanaerobacter tengcongensis; details: for koff: LS dissociation, unlabeled competitor peptide; for kon (M^−1 min^−1 ) (×10^7): S*-LS transition, calculated from measured koff and Kd
Description: Panel a depicts representative association rate kinetics traces varying native RPtag small. Rhodamine labeled RPtag small at the indicated concentration was incubated with unlabeled RPtag large and the association measured by fluorescence anisotropy. L-S complex concentration was calculated by the equation (r−rmin)/(rmax−rmin)*[S] where r is the measured anisotropy, rmin is the anisotropy in the absence of any RPtag large, rmax is the anisotropy measured in the presence of at saturating RPtag large, and [S] is the total concentration of RPtag small used in the experiment. […] Dashed cyan lines are simulations of the mechanism shown in f using the rate constants detailed herein. The concentrations in the simulations were multiplied by a correction factor of 0.925, which is well within the 90% purity specification of the purchased peptide.
LS complex was performed by incubating 1000 nM RPtag large with the indicated concentrations of rhodamine labeled RPtag small. At the start of the experiment, 0.1 mM unlabeled native RPtag small was added and fluorescence anisotropy monitored. Data processing was done as in panel a, except the red fits were to the single exponential decay equation y=y0+A*exp(−b*t). As expected, the initial dissociation rates were linear with respect to the LS complex.
Fitting to a line yields a rate constant (koff)=0.0091 min^−1 (FIG. 9 panel e). In good agreement, when the kinetics are fit with a first order rate law, a rate constant of 0.012±0.002 min^−1 (n=15) was observed. […] Panel e is a graph of the initial rates of the traces represented in d. Slope of the fit line is 0.0091 min^−1. Data are mean±SE (n=3).
The library of mutant RPtag(small) peptides, described above, was next analyzed to measure off rates (koff). The on rate was also calculated from measured koff and Kd (S*-LS transition), except instead of using unlabeled native peptide as the competitor, we used unlabeled Nd2,P5A,E18A (the tightest binding RPtag(small) peptide identified). […] However, there were notable exceptions. […] This indicates, without wishing to be limited, that P5 may constrain the structure of the peptide. The increased flexibility imparted to the peptide by the P5A mutation may decrease the energy barrier required for binding/unbinding.

| Substance | koff (RPtag (large) [2]) [s⁻¹] | kon (M^−1 min^−1 ) (×10^7) (RPtag (large) [2]) | other results |
| --- | --- | --- | --- |
| GEKIPNFIPAELKLITKENVQ [q21a, RPtag(small) with Q21 changed to alanine] | 5.67e-05 ± 5e-06 | – | effect of alanine mutation on binding affinity to RPtag(large) (RPtag (large) [1]; alanine scanning versus native): significantly increased binding affinity; kf (RPtag (large) [2]; S to S* forward rate constant): 0.087 ± 0.005 min⁻¹ |
| GEKIPNFIPAELK [Cd8] | – | – | Kd (RPtag (large) [1]): > 100 µM |
| LKLITKENVQ [Nd11] | 0.02 ± 0.01 | 7.1 ± 3.8 ×10^7 M^−1 min^−1 | – |
| RIANFIPAELKLITKANVQ [Nd2, k3r, p5a, e18a] | 0.000217 ± 1.7e-05 | 3.4 ± 0.1 ×10^7 M^−1 min^−1 | – |
| GEKIPNFIPAELKLIAKENVQ [t16a] | 0.00148 ± 5e-05 | 7.5 ± 0.3 ×10^7 M^−1 min^−1 | – |
| GEKIPNFIPAE [Cd10] | – | – | Kd (RPtag (large) [1]): > 100 µM |
| FIPAELKLITKA [Nd6, Cd3, e18a] | >0.033 | – | – |
| KIANFIPAELKLITKE [Nd2, Cd3, p5a] | – | 26 ± 1 ×10^7 M^−1 min^−1 | – |
| ELKLITKENVQ [Nd10] | 0.00417 ± 0.00067 | 4.3 ± 0.7 ×10^7 M^−1 min^−1 | – |
| PNFIPAELKLITKENVQ [Nd4] | 0.000467 ± 1.7e-05 | 9.4 ± 0.4 ×10^7 M^−1 min^−1 | – |
| GEKIPNAIPAELKLITKENVQ [f7a] | 0.00105 ± 5e-05 | 3.1 ± 0.1 ×10^7 M^−1 min^−1 | – |
| IPNFIPAELKLITKENVQ [Nd3] | 0.0002 ± 1.7e-05 | 8.8 ± 0.3 ×10^7 M^−1 min^−1 | – |
| GEKIPNFIPA [Cd11] | – | – | Kd (RPtag (large) [1]): > 100 µM |
| GEKIPNFIPAELKAITKENVQ [l14a] | >0.033 | – | – |
| GEAIPNFIPAELKLITKENVQ [k3a] | 8.83e-05 ± 1.2e-05 | 1.1 ± 0.1 ×10^7 M^−1 min^−1 | – |
| GEKIPNFIPAEL [Cd9] | – | – | Kd (RPtag (large) [1]): > 100 µM |

| Substance | koff (RPtag (large) [2]) [s⁻¹] | kon (M^−1 min^−1 ) (×10^7) (RPtag (large) [2]) | other results |
| --- | --- | --- | --- |
| PAELKLITKENVQ [Nd8] | 0.000917 ± 3.3e-05 | 9.3 ± 0.3 ×10^7 M^−1 min^−1 | – |
| ELKLIT [Nd10, Cd5] | >0.033 | – | – |
| KIPNFIPAELKLITKANAA [Nd2, e18a, v20a, q21a] | 0.000383 ± 1.7e-05 | 3.6 ± 0.3 ×10^7 M^−1 min^−1 | – |
| AELKLITKENVQ [Nd9] | 0.00667 ± 0.00067 | 8.2 ± 0.9 ×10^7 M^−1 min^−1 | – |
| KIPNFIPAELKLITK [Nd2, Cd4] | 0.00132 ± 0.0001 | 20 ± 2 ×10^7 M^−1 min^−1 | – |
| GEKIPNFAPAELKLITKENVQ [i8a] | 0.0015 ± 0.00015 | 8.6 ± 0.9 ×10^7 M^−1 min^−1 | – |
| FIPAELKLITKENVQ [Nd6] | 0.00108 ± 5e-05 | 12 ± 1 ×10^7 M^−1 min^−1 | – |
| FIPAELKLITKE [Nd6, Cd3] | >0.033 | – | – |
| PAELKLITKE [Nd8, Cd3] | >0.033 | – | – |
| GEKIPNFIPAELKLATKENVQ [i15a] | 0.0183 ± 0.005 | 25 ± 6 ×10^7 M^−1 min^−1 | – |
| GEKIPNFIPAELKL [Cd7] | >0.033 | – | – |
| GEKIPNFIPAELKLIT [Cd5] | 0.0065 ± 0.00383 | 11 ± 7 ×10^7 M^−1 min^−1 | – |
| GEKIPNF [Cd14] | – | – | Kd (RPtag (large) [1]): > 100 µM |
| AIANFIPAELKLITKENVQ [Nd2, k3a, p5a] | 0.00015 ± 6.7e-06 | – | – |
| KIANFIPAELKLITK [Nd2, Cd4, p5a] | 0.003 ± 0.00017 | 22 ± 1 ×10^7 M^−1 min^−1 | – |
| GEKIPNFIPAELKLITKEN [Cd2] | – | 9.8 ± 0.3 ×10^7 M^−1 min^−1 | – |
